Key:
[1] = target: isolated recombinant JAK1 kinase domain (Homo sapiens (Human), UniProt P23458); assay: JAK1 enzyme assay (Caliper LabChip, peptide phosphorylation); type: biochemical; conditions: isolated recombinant JAK1 kinase domain, 25 μM ATP
[2] = target: isolated recombinant JAK2 kinase domain (Homo sapiens (Human), UniProt O60674); assay: JAK2 enzyme assay (Caliper LabChip, peptide phosphorylation); type: biochemical; conditions: 25 μM ATP
isolated recombinant JAK2 kinase domain, sequence (O60674 849-1124): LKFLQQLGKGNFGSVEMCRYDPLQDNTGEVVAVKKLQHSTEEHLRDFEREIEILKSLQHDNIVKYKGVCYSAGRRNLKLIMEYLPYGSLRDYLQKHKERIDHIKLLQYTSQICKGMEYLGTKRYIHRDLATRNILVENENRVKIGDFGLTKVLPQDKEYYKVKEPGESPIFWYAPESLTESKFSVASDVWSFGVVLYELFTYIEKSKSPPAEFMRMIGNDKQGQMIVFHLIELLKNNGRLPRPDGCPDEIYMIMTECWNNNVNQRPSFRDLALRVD

isolated recombinant JAK1 kinase domain, sequence (P23458 875-1153): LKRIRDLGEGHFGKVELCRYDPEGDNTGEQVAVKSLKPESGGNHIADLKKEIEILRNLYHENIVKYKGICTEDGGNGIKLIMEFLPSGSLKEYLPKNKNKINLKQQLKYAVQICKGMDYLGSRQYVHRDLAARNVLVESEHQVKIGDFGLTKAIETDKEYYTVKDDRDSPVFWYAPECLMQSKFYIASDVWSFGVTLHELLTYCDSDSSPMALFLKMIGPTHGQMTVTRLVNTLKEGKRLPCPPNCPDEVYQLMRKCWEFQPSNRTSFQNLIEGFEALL

SMILES: CN1CCN(C(=O)Cn2cc(NC(=O)c3cnn4cccnc34)c(-c3cc(Cl)ccc3OC(F)F)n2)C[C@@H]1CO [Example 234, N-[3-[5-chloro-2-(difluoromethoxy)phenyl]-1-[2-[(3R)-3-(hydroxymethyl)-4-methyl-piperazin-1-yl]-2-oxo-ethyl]pyrazol-4-yl]pyrazolo[1,5-a]pyrimidine-3-carboxamide]
- Ki [1]: 0.58 nM
- Ki [2]: 1.22 nM

SMILES: CCN1CCN(C(=O)Cn2cc(NC(=O)c3c(N)nn4cccnc34)c(-c3cc(Cl)ccc3OC(F)F)n2)CC1 [Example 247, 2-amino-N-[3-[5-chloro-2-(difluoromethoxy)phenyl]-1-[2-(4-ethylpiperazin-1-yl)-2-oxo-ethyl]pyrazol-4-yl]pyrazolo[1,5-a]pyrimidine-3-carboxamide]
- Ki [1]: 0.55 nM
- Ki [2]: 0.3 nM

SMILES: O=C(Nc1cn(CC(=O)N2CCN(CCOCCO)CC2)nc1-c1cc(Cl)ccc1OC(F)F)c1cnn2cccnc12 [Example 231, N-[3-[5-chloro-2-(difluoromethoxy)phenyl]-1-[2-[4-[2-(2-hydroxyethoxy)ethyl]piperazin-1-yl]-2-oxo-ethyl]pyrazol-4-yl]pyrazolo[1,5-a]pyrimidine-3-carboxamide]
- Ki [1]: 0.54 nM
- Ki [2]: 1.18 nM

SMILES: O=C(Nc1cn(CC(=O)N2CCCN(CCO)CC2)nc1-c1cc(Cl)ccc1OC(F)F)c1cnn2cccnc12 [Example 240, N-[3-[5-chloro-2-(difluoromethoxy)phenyl]-1-[2-[4-(2-hydroxyethyl)-1,4-diazepan-1-yl]-2-oxo-ethyl]pyrazol-4-yl]pyrazolo[1,5-a]pyrimidine-3-carboxamide]
- Ki [1]: 1 nM
- Ki [2]: 1.68 nM

SMILES: Nc1nn2cccnc2c1C(=O)Nc1cn(CC(=O)N2CCC(O)(Cc3ccccc3)CC2)nc1-c1cc(Cl)ccc1OC(F)F [Example 279, 2-amino-N-[1-[2-(4-benzyl-4-hydroxy-1-piperidyl)-2-oxo-ethyl]-3-[5-chloro-2-(difluoromethoxy)phenyl]pyrazol-4-yl]pyrazolo[1,5-a]pyrimidine-3-carboxamide]
- Ki [1]: 0.39 nM
- Ki [2]: 0.22 nM

SMILES: O=C(Nc1sc(N2CCN(CCc3ccccc3)CC2)nc1-c1cc(Cl)ccc1OC(F)F)c1cnn2cccnc12 [Example 206, N-[4-[5-chloro-2-(difluoromethoxy)phenyl]-2-[4-(2-phenylethyl)piperazin-1-yl]thiazol-5-yl]pyrazolo[1,5-a]pyrimidine-3-carboxamide]
- Ki [1]: 14 nM
- Ki [2]: 8.67 nM

SMILES: O=C(Nc1cn(CC(=O)N2CCN(c3ccccc3)CC2)nc1-c1cc(Cl)ccc1OC(F)F)c1cnn2cccnc12 [Example 236, N-[3-[5-chloro-2-(difluoromethoxy)phenyl]-1-[2-oxo-2-(4-phenylpiperazin-1-yl)ethyl]pyrazol-4-yl]pyrazolo[1,5-a]pyrimidine-3-carboxamide]
- Ki [1]: 0.41 nM
- Ki [2]: 0.74 nM

SMILES: CN1CC2(C1)CN(C(=O)Cn1cc(NC(=O)c3cnn4cccnc34)c(-c3cc(Cl)ccc3OC(F)F)n1)C2 [Example 214, N-[3-[5-chloro-2-(difluoromethoxy)phenyl]-1-[2-(6-methyl-2,6-diazaspiro[3.3]heptan-2-yl)-2-oxo-ethyl]pyrazol-4-yl]pyrazolo[1,5-a]pyrimidine-3-carboxamide]
- Ki [1]: 1.17 nM
- Ki [2]: 1.29 nM

SMILES: CS(=O)(=O)CCN1CCN(C(=O)Cn2cc(NC(=O)c3cnn4cccnc34)c(-c3cc(Cl)ccc3OC(F)F)n2)CC1 [Example 232, N-[3-[5-chloro-2-(difluoromethoxy)phenyl]-1-[2-[4-(2-methylsulfonylethyl)piperazin-1-yl]-2-oxo-ethyl]pyrazol-4-yl]pyrazolo[1,5-a]pyrimidine-3-carboxamide]
- Ki [1]: 0.74 nM
- Ki [2]: 1.46 nM

SMILES: Nc1nn2cccnc2c1C(=O)Nc1cn(CC(=O)N2CCOCC2)nc1-c1cc(Cl)ccc1OC(F)F [Example 290, 2-amino-N-[3-[5-chloro-2-(difluoromethoxy)phenyl]-1-(2-morpholino-2-oxo-ethyl)pyrazol-4-yl]pyrazolo[1,5-a]pyrimidine-3-carboxamide]
- Ki [1]: 0.24 nM
- Ki [2]: 0.11 nM

SMILES: CN(CC1(C#N)CCCCC1)C1CCN(c2nc(-c3cc(Cl)ccc3OC(F)F)c(NC(=O)c3cnn4cccnc34)s2)CC1 [Example 203, N-[4-[5-chloro-2-(difluoromethoxy)phenyl] 2-[4-[(1-cyanocyclohexyl)methyl-methyl-amino]-1-piperidyl]thiazol-5-yl]pyrazolo[1,5-a]pyrimidine-3-carboxamide]
- Ki [1]: 5.48 nM
- Ki [2]: 4.15 nM

SMILES: CS(=O)(=O)N1CCC(CN2C[C@@H]3CN(C(=O)Cn4cc(NC(=O)c5cnn6cccnc56)c(-c5cc(Cl)ccc5OC(F)F)n4)C[C@@H]3C2)CC1 [Example 34, N-[1-[2-[(3aR,6aS)-2-[(1-methylsulfonyl-4-piperidyl)methyl]-1,3,3a,4,6,6a-hexahydropyrrolo[3,4-c]pyrrol-5-yl]-2-oxo-ethyl]-3-[5-chloro-2-(difluoromethoxy)phenyl]pyrazol-4-yl]pyrazolo[1,5-a]pyrimidine-3-carboxamide]
- Ki [1]: 0.47 nM
- Ki [2]: 0.46 nM

SMILES: CN(C)C[C@H]1CCCN(C(=O)Cn2cc(NC(=O)c3cnn4cccnc34)c(-c3cc(Cl)ccc3OC(F)F)n2)C1 [Example 71, N-[3-[5-chloro-2-(difluoromethoxy)phenyl]-1-[2-[(3R)-3-[(dimethylamino)methyl]-1-piperidyl]-2-oxo-ethyl]pyrazol-4-yl]pyrazolo[1,5-a]pyrimidine-3-carboxamide]
- Ki [1]: 1.06 nM
- Ki [2]: 4.66 nM

SMILES: O=C(Nc1cn(CC(=O)N2CCC(F)(F)C2)nc1-c1cc(Cl)ccc1OC(F)F)c1cnn2cccnc12 [Example 287, N-[3-[5-chloro-2-(difluoromethoxy)phenyl]-1-[2-(3,3-difluoropyrrolidin-1-yl)-2-oxo-ethyl]pyrazol-4-yl]pyrazolo[1,5-a]pyrimidine-3-carboxamide]
- Ki [1]: 0.35 nM
- Ki [2]: 0.65 nM

SMILES: CN(CCc1ccccc1)Cc1nc(-c2cc(Cl)ccc2OC(F)F)c(NC(=O)c2cnn3cccnc23)s1 [Example 261, N-[4-[5-chloro-2-(difluoromethoxy)phenyl]-2-[[methyl(2-phenylethyl)amino]methyl]thiazol-5-yl]pyrazolo[1,5-a]pyrimidine-3-carboxamide]
- Ki [1]: 17.9 nM
- Ki [2]: 10.2 nM

SMILES: CN(CC1(C#N)CCCCC1)C1CCN(C(=O)c2ccc(-n3cc(NC(=O)c4cnn5cccnc45)c(-c4cc(Cl)ccc4OC(F)F)n3)cc2)CC1 [Example 187, N-[3-[5-chloro-2-(difluoromethoxy)phenyl]-1-[4-[4-[(1-cyanocyclohexyl)methyl-methyl-amino]piperidine-1-carbonyl]phenyl]pyrazol-4-yl]pyrazolo[1,5-a]pyrimidine-3-carboxamide]
- Ki [1]: 7.05 nM
- Ki [2]: 9.03 nM

SMILES: CN1CCC2(CC1)CN(C(=O)Cn1cc(NC(=O)c3cnn4cccnc34)c(-c3cc(Cl)ccc3OC(F)F)n1)CCO2 [Example 213, N-[3-[5-chloro-2-(difluoromethoxy)phenyl]-1-[2-(9-methyl-1-oxa-4,9-diazaspiro[5.5]undecan-4-yl)-2-oxo-ethyl]pyrazol-4-yl]pyrazolo[1,5-a]pyrimidine-3-carboxamide]
- Ki [1]: 1.49 nM
- Ki [2]: 2.34 nM

SMILES: Nc1nn2cccnc2c1C(=O)Nc1cn([C@@H]2CCNC2)nc1-c1cc(Cl)ccc1OC(F)F [Example 185, 2-amino-N-[3-[5-chloro-2-(difluoromethoxy)phenyl]-1-[(3R)-pyrrolidin-3-yl]pyrazol-4-yl]pyrazolo[1,5-a]pyrimidine-3-carboxamide]
- Ki [1]: 0.59 nM
- Ki [2]: 0.31 nM

SMILES: Nc1nn2cccnc2c1C(=O)Nc1cn(CC(=O)N2CCOC(CO)C2)nc1-c1cc(Cl)ccc1OC(F)F (stereo not drawn) [Example 273, 2-amino-N-[3-[5-chloro-2-(difluoromethoxy)phenyl]-1-[2-[2-(hydroxy-methyl)morpholin-4-yl]-2-oxo-ethyl]pyrazol-4-yl]pyrazolo[1,5-a]pyrimidine-3-carboxamide]
- Ki [1]: 0.49 nM
- Ki [2]: 0.23 nM

SMILES: Nc1nn2cccnc2c1C(=O)Nc1cn(CC(=O)N2CC3CNCC3C2)nc1-c1cc(Cl)ccc1OC(F)F (stereo not drawn) [Example 10, N-[1-[2-(2,3,3a,4,6,6a-hexahydro-1H-pyrrolo[3,4-c]pyrrol-5-yl)-2-oxo-ethyl]-3-[5-chloro-2-(difluoromethoxy)phenyl]pyrazol-4-yl]-2-amino-pyrazolo[1,5-a]pyrimidine-3-carboxamide]
- Ki [1]: 0.65 nM
- Ki [2]: 0.32 nM

SMILES: O=C(Nc1cn(CC(=O)N2CCC(O)(c3ccccc3)CC2)nc1-c1cc(Cl)ccc1OC(F)F)c1cnn2cccnc12 [Example 289, N-[3-[5-chloro-2-(difluoromethoxy)phenyl]-1-[2-(4-hydroxy-4-phenyl-1-piperidyl)-2-oxo-ethyl]pyrazol-4-yl]pyrazolo[1,5-a]pyrimidine-3-carboxamide]
- Ki [1]: 0.3 nM
- Ki [2]: 0.38 nM

SMILES: CN1CCN(C(=O)Cn2cc(NC(=O)c3c(N)nn4cccnc34)c(-c3cc(Cl)ccc3OC(F)F)n2)CC1 [Example 243, 2-amino-N-[3-[5-chloro-2-(difluoromethoxy)phenyl]-1-[2-(4-methylpiperazin-1-yl)-2-oxo-ethyl]pyrazol-4-yl]pyrazolo[1,5-a]pyrimidine-3-carboxamide]
- Ki [1]: 0.49 nM
- Ki [2]: 0.36 nM

SMILES: O=C(Nc1cn(CC(=O)N2CC3(CCNCC3)C2)nc1-c1cc(Cl)ccc1OC(F)F)c1cnn2cccnc12 [Example 217, N-[3-[5-chloro-2-(difluoromethoxy)phenyl]-1-[2-(2,7-diazaspiro[3.5]nonan-2-yl)-2-oxo-ethyl]pyrazol-4-yl]pyrazolo[1,5-a]pyrimidine-3-carboxamide]
- Ki [1]: 1.07 nM
- Ki [2]: 1.37 nM

SMILES: O=C(Nc1cn(CC(=O)N2CCC(O)(CO)CC2)nc1-c1cc(Cl)ccc1OC(F)F)c1cnn2cccnc12 [Example 272, N-[3-[5-chloro-2-(difluoromethoxy)phenyl]-1-[2-[4-hydroxy-4-(hydroxymethyl)-1-piperidyl]-2-oxo-ethyl]pyrazol-4-yl]pyrazolo[1,5-a]pyrimidine-3-carboxamide]
- Ki [1]: 0.33 nM
- Ki [2]: 0.78 nM
